Test: xn = mol fraction of the nth substance listed
Conditions: 101.3 kPa, Liquid; for viscosity: Capillary tube (Ostwald / Ubbelohde) method; for mass density: Pycnometric method

N#Cc1ccccc1 [benzonitrile] + CN(C)C=O
Conditions	mass density, 298.15 K [kg/m3]	mass density, 303.15 K [kg/m3]	mass density, 308.15 K [kg/m3]	mass density, 313.15 K [kg/m3]	viscosity, 298.15 K [mPa·s]	viscosity, 303.15 K [mPa·s]	viscosity, 308.15 K [mPa·s]	viscosity, 313.15 K [mPa·s]
x2 = 0	1000.9	996.4	991.9	987.2	1.171	1.126	1.068	1.001
x2 = 0.1335	995.4	990.9	986.4	981.7	1.17	1.124	1.064	0.99
x2 = 0.1981	992.7	988.2	983.7	979	1.169	1.119	1.056	0.985
x2 = 0.3191	987.4	982.9	978.4	973.8	1.152	1.097	1.033	0.963
x2 = 0.3873	984.3	979.8	975.3	970.6	1.134	1.078	1.015	0.948
x2 = 0.4907	979	974.5	970	965.3	1.099	1.042	0.98	0.918
x2 = 0.6061	972.2	967.7	963.2	958.5	1.049	0.992	0.932	0.875
x2 = 0.7176	965.2	960.6	956	951.2	0.992	0.936	0.879	0.825
x2 = 0.7997	959.6	955	950.4	945.6	0.943	0.889	0.834	0.781
x2 = 0.9209	950.6	946	941.4	936.5	0.862	0.811	0.761	0.715
